How the values were obtained:
p70S6K (T412E mutant) = p70S6K (T412E mutant) (Homo sapiens (Human), UniProt P23443, T412E); assay: p70S6K enzyme assay; assay type: biochemical; conditions: 24 μM ATP, 90 min at 25° C., Caliper mobility shift
Experimental: p70S6K inhibitor compounds were diluted and plated in 96 well plates. A reaction mixture including the following components were then added to the compound plate to initiate the enzyme reaction: p70S6K (3 nM, T412E mutant, Millipore) was mixed with 24 μM ATP in an assay buffer containing 100 mM Hepes (pH 7.5), 5 mM MgCl2, 1 mM DTT, 0.015% Brij and 1 μM of the substrate peptide FITC-AHA-[…]-OH (derived from the S6 ribosomal protein sequence, FITC=fluorescein isothiocyanate, AHA=6-aminohexanoic acid). The reaction was incubated for 90 min at 25° C., before the addition of 10 mM EDTA to stop the reaction. The proportion of substrate and product (phosphorylated) peptide was analyzed on a Caliper Life Sciences Lab Chip 3000, using a pressure of −1.4 psi, and upstream and downstream voltages of −3000 and −700, respectively. Product peaks were resolved before substrate peaks on the resulting chromatograms. To assess the inhibitory potential of the compounds, IC50 values were determined, as shown above.

His-AKT (Full Length) = His-AKT (Full Length) (Homo sapiens (Human), UniProt P31749); assay: AKT/PKB kinase assay; assay type: biochemical; conditions: 160 μM ATP, 90 min at 25° C., Caliper mobility shift
Sequence of His-AKT (Full Length) (P31749 whole entry): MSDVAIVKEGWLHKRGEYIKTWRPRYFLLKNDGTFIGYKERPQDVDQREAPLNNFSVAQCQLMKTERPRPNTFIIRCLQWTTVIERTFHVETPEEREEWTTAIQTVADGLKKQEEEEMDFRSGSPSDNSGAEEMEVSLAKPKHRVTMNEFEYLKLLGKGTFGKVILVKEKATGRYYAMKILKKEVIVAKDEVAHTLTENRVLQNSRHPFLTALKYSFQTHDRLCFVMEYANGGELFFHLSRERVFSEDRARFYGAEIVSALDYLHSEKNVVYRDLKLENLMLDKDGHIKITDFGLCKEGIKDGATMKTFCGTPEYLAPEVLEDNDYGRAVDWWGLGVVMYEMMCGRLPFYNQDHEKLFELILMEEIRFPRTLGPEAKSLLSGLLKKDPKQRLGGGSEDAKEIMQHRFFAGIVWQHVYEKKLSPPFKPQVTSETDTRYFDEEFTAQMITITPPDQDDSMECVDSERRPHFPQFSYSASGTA
Experimental: In order to measure AKT inhibition in the Caliper Life Sciences LC3000, a TTP Mosquito liquid handling instrument was used to place 125 nl of the appropriate concentration of inhibitor in 100% DMSO (for a dose response curve calculation) into each well of a 384-well plate. To this reaction, the following components were added to a final volume of 12.5 μl: • 0.1 ng/μl His-AKT (Full Length) (Invitrogen, Part # P2999, Lot #641228C); • 160 μM ATP (Fluka, 02055); • 1 mM DTT (Sigma, D0632); • 1 mM MgCl2 (Sigma, M1028); • 1 μM substrate peptide (sequence FITC-AHA-[…]-NH2), synthesized by • Tufts Peptide Synthesis service; • 100 mM HEPES pH 7.5 (Calbiochem, 391338); and • 0.015% Brij-35 (Sigma, B4184).
The reaction was incubated for 90 min at 25° C., and then stopped by the addition of 70 μl of Stop buffer (100 mM HEPES pH 7.5, 0.015% Brij-35, 10 mM EDTA (Sigma, E7889)). The plate was read on a Caliper LC 3000 in an Off-Chip mobility shift assay format, using the following parameters for a 12-sipper chip: screening pressure −2.3 psi, upstream voltage −500, and downstream voltage −3000. These conditions cause unphosphorylated substrate and phosphorylated product peptide to resolve as separate peaks allowing direct measurement of percentage of conversion of substrate to product. The percent conversion was plotted against concentration of inhibitor to produce a sigmoidal dose response curve, from which an IC50 was calculated.

Sequence of p70S6K (T412E mutant) (P23443 whole entry T412E): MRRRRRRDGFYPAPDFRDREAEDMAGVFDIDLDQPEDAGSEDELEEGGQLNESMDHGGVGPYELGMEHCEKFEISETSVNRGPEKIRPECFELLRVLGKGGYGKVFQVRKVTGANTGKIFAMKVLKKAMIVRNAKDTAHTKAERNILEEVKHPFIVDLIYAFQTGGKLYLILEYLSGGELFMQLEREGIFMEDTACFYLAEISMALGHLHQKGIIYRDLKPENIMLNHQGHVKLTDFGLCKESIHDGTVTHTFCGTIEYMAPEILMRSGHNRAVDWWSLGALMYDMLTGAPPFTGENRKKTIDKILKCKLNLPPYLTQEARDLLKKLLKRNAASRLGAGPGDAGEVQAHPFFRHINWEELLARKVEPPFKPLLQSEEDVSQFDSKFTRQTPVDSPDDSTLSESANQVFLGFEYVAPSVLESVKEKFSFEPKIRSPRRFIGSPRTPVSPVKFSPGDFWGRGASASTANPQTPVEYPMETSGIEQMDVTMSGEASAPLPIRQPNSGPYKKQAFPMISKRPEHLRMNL

| SMILES | IC50 (p70S6K (T412E mutant)) | IC50 (His-AKT (Full Length)) |
| --- | --- | --- |
| NC(=O)c1cccc2c(NCc3cccc(C(F)(F)F)c3)nnnc12 [Compound 1, 4-(3-Trifluoromethyl-benzylamino)-benzo[d][1,2,3]triazine-8-carboxamide] | 101 to 500 nM | > 1000 nM |
| NC(=O)c1cccc2c(NCc3ccc(Cl)c(Cl)c3)nnnc12 [Compound 2, 4-((3,4-dichlorobenzyl)amino)benzo[d][1,2,3]triazine-8-carboxamide] | < 25 nM | > 1000 nM |
| NC(=O)c1cccc2c(NCc3cccnc3)nnnc12 [Compound 3, 4-((pyridin-3-ylmethyl)amino)benzo[d][1,2,3]triazine-8-carboxamide] | > 1000 nM | > 1000 nM |
| NC(=O)c1cccc2c(NCc3ccc(Cl)c(C(F)(F)F)c3)nnnc12 [Compound 4, 4-((4-chloro-3-(trifluoromethyl)benzyl)amino)benzo[d][1,2,3]triazine-8-carboxamide] | < 25 nM | > 1000 nM |
| NC(=O)c1cccc2c(NCc3ccccn3)nnnc12 [Compound 5, 4-((pyridin-2-ylmethyl)amino)benzo[d][1,2,3]triazine-8-carboxamide] | > 1000 nM | > 1000 nM |
| NC(=O)c1cccc2c(NCc3ccccc3)nnnc12 [Compound 6, 4-(benzylamino)benzo[d][1,2,3]triazine-8-carboxamide] | 501 to 1000 nM | > 1000 nM |
| NC(=O)c1cccc2c(NCc3ccc(C(F)(F)F)cn3)nnnc12 [Compound 7, 4-(((5-(trifluoromethyl)pyridin-2-yl)methyl)amino)benzo[d][1,2,3]triazine-8-carboxamide] | > 1000 nM | > 1000 nM |
| NC(=O)c1cccc2c(NCc3ccc(C(F)(F)F)cc3)nnnc12 [Compound 8, 4-((4-(trifluoromethyl)benzyl)amino)benzo[d][1,2,3]triazine-8-carboxamide] | 25 to 100 nM | > 1000 nM |
| NC(=O)c1cccc2c(NCc3cccc(F)c3)nnnc12 [Compound 9, 4-((3-fluorobenzyl)amino)benzo[d][1,2,3]triazine-8-carboxamide] | 501 to 1000 nM | > 1000 nM |
| COc1cc([C@@H](CN2CCC2)Nc2nnnc3c(C(N)=O)cccc23)ccc1Cl [Compound 10, (S)-4-((2-(azetidin-1-yl)-1-(4-chloro-3-methoxyphenyl)ethyl)amino)-benzo[d][1,2,3]triazine-8-carboxamide] | < 25 nM | 101 to 500 nM |
| COc1cc([C@@H](CN(C)C)Nc2nnnc3c(C(N)=O)cccc23)ccc1Cl [Compound 11, (S)-4-((1-(4-chloro-3-methoxyphenyl)-2-(dimethylamino)ethyl)amino)-benzo[d][1,2,3]triazine-8-carboxamide] | 25 to 100 nM | 101 to 500 nM |
| NC(=O)c1cccc2c(N[C@H](CN3CCC3)c3ccc(F)c(C(F)(F)F)c3)nnnc12 [Compound 12, (S)-4-((2-(azetidin-1-yl)-1-(4-fluoro-3-(trifluoromethyl)phenyl)ethyl)amino)benzo[d][1,2,3]triazine-8-carboxamide] | < 25 nM | < 25 nM |
| CN(C)C[C@@H](Nc1nnnc2c(C(N)=O)cccc12)c1ccc(Cl)c(C(F)(F)F)c1 [Compound 13, (S)-4-((1-(4-chloro-3-(trifluoromethyl)phenyl)-2-(dimethylamino)ethyl)amino)benzo-[d][1,2,3]triazine-8-carboxamide] | < 25 nM | < 25 nM |

Next, values leading:

| IC50 (p70S6K (T412E mutant)) | IC50 (His-AKT (Full Length)) | SMILES |
| --- | --- | --- |
| < 25 nM | < 25 nM | NC(=O)c1cccc2c(N[C@H](CN3CCC3)c3ccc(Cl)c(C(F)(F)F)c3)nnnc12 [Compound 14, (S)-4-((2-(azetidin-1-yl)-1-(4-chloro-3-(trifluoromethyl)phenyl)ethyl)amino)benzo[d][1,2,3]triazine-8-carboxamide] |
| < 25 nM | < 25 nM | CN(C)C[C@@H](Nc1nnnc2c(C(N)=O)cccc12)c1ccc(Cl)c(Cl)c1 [Compound 15, (S)-4-((1-(3,4-dichlorophenyl)-2-(dimethylamino)ethyl)amino)benzo[d][1,2,3]triazine-8-carboxamide] |
| < 25 nM | < 25 nM | NC(=O)c1cccc2c(N[C@H](CN3CCC3)c3ccc(Cl)c(Cl)c3)nnnc12 [Compound 16, (S)-4-((2-(azetidin-1-yl)-1-(3,4-dichlorophenyl)ethyl)amino)benzo[d][1,2,3]triazine-8-carboxamide] |
| 25 to 100 nM | 101 to 500 nM | CN(C)C[C@@H](Nc1nnnc2c(C(N)=O)cccc12)c1ccc(Cl)c(C#N)c1 [Compound 17, (S)-4-((1-(4-chloro-3-cyanophenyl)-2-(dimethylamino)ethyl)amino)-benzo[d][1,2,3]triazine-8-carboxamide] |
| < 25 nM | 101 to 500 nM | N#Cc1cc([C@@H](CN2CCC2)Nc2nnnc3c(C(N)=O)cccc23)ccc1Cl [Compound 18, (S)-4-((2-(azetidin-1-yl)-1-(4-chloro-3-cyanophenyl)ethyl)amino)benzo[d][1,2,3]triazine-8-carboxamide] |
| > 1000 nM | > 1000 nM | NC(=O)c1cncc2c(N[C@@H](CN3CCC3)c3ccc(Cl)c(C(F)(F)F)c3)ncnc12 [Compound 19, (R)-4-((2-(azetidin-1-yl)-1-(4-chloro-3-(trifluoromethyl)phenyl)ethyl)amino)pyrido[4,3-d]pyrimidine-8-carboxamide] |
| < 25 nM | 25 to 100 nM | NC(=O)c1cncc2c(N[C@H](CN3CCC3)c3ccc(Cl)c(C(F)(F)F)c3)ncnc12 [Compound 20, (S)-4-((2-(azetidin-1-yl)-1-(4-chloro-3-(trifluoromethyl)phenyl)ethyl)amino)pyrido[4,3-d]pyrimidine-8-carboxamide] |
| < 25 nM | < 25 nM | NC(=O)c1cccc2c(NC3CNCCC3c3cccc(C(F)(F)F)c3)nnnc12 (stereo not shown) [Compound 21, 4-((4-(3-(trifluoromethyl)phenyl)piperidin-3-yl)amino)benzo[d][1,2,3]triazine-8-carboxamide] |
| < 25 nM | 101 to 500 nM | NC(=O)c1cccc2c(NC3CNCCC3c3ccc(C(F)(F)F)cc3)nnnc12 (stereo not shown) [Compound 22, 4-((4-(4-(trifluoromethyl)phenyl)piperidin-3-yl)amino)benzo[d][1,2,3]triazine-8-carboxamide] |
| 25 to 100 nM | 101 to 500 nM | NC(=O)c1ccnc2c(NC3CNCCC3c3ccc(F)c(Cl)c3)ncnc12 (stereo not shown) [Compound 23, 4-[4-(3-Chloro-4-fluoro-phenyl)-piperidin-3-ylamino]-pyrido[3,2-d]pyrimidine-8-carboxamide] |
| < 25 nM | 501 to 1000 nM | NC(=O)c1ccnc2c(NC3CNCCC3c3ccc(C(F)(F)F)cc3)ncnc12 (stereo not shown) [Compound 25, 4-((4-(4-(trifluoromethyl)phenyl)piperidin-3-yl)amino)pyrido[3,2-d]pyrimidine-8-carboxamide] |
| < 25 nM | < 25 nM | CNC[C@@H](Nc1ncnc2c(C(N)=O)ccnc12)c1ccc(C(F)(F)F)c(F)c1 [Compound 26, 4-[(S)-1-(3-Fluoro-4-trifluoromethyl-phenyl)-2-methylamino-ethylamino]-pyrido[3,2-d]pyrimidine-8-carboxylic Acid Amide] |
| < 25 nM | 101 to 500 nM | NC(=O)c1ccnc2c(N[C@H](CN3CCC3)c3ccc(C(F)(F)F)cc3)ncnc12 [Compound 27, 4-[(S)-2-Azetidin-1-yl-1-(4-trifluoromethyl-phenyl)-ethylamino]-pyrido[3,2-d]pyrimidine-8-carboxylic Acid Amide] |
| – | 25 to 100 nM | CCNC[C@@H](Nc1ncnc2c(C(N)=O)ccnc12)c1ccc(F)c(Br)c1 [Compound 30, 4-[(S)-1-(3-Bromo-4-fluoro-phenyl)-2-ethylamino-ethylamino]-pyrido[3,2-d]pyrimidine-8-carboxylic Acid Amide] |
| – | 25 to 100 nM | CN(C)C[C@@H](Nc1ncnc2c(C(N)=O)ccnc12)c1ccc(Cl)c(F)c1 [Compound 53, 4-[(S)-1-(4-Chloro-3-fluoro-phenyl)-2-dimethylamino-ethylamino]-pyrido[3,2-d]pyrimidine-8-carboxylic Acid Amide] |
| – | 25 to 100 nM | CCNC[C@@H](Nc1ncnc2c(C(N)=O)ccnc12)c1ccc(F)c(Cl)c1 [Compound 61, 4-[(S)-1-(3-Chloro-4-fluoro-phenyl)-2-ethylamino-ethylamino]-pyrido[3,2-d]pyrimidine-8-carboxylic Acid Amide] |
